Experimental data as given in patent publication EP4799619A1, “COMPOUND TARGETING EGR-1 AND USE THEREOF FOR TREATMENT OF ATOPIC DERMATITIS” (AgeraMedi, Inc., priority 2023, dated 2025).

What was measured:
TSLP = assay: RT-PCR of EGR-1 target gene mRNA in TNFα-stimulated HaCaT cells: TSLP; format: cell-based, human; settings: 0, 5, 10, and 20 µM for 30 minutes, then TNFα 10 ng/mL for 12 hours, FIG. 14
Protocol: (§1) To determine whether the compounds of the present invention (Compounds 21, 23, and 25) inhibit expression of TSLP, IL-1β, and IL-6 genes, which are EGR-1 target genes playing a key role in atopic dermatitis exacerbation, the inhibitory effect of the compounds on mRNA expression of an EGR-1 target gene TSLP was evaluated by reverse transcription-polymerase chain reaction (RT-PCR) in HaCaT keratinocyte cells.
(§2) Specifically, HaCaT keratinocyte cells (purchased from Cell Lines Service, Eppelheim, Germany) were passaged at a seeding density of 1x10^6 cells per 100 mm cell culture dish in Dulbecco's modified Eagle's medium (Invitrogen Life Technologies) containing 10% fetal bovine serum (Invitrogen Life Technologies) and antibiotic-antifungal agent mix solution (Invitrogen Life Technologies), once every two days, and cultured at 37 °C in a 5% CO2 incubator.
(§3) HaCaT cells were treated with the compounds of the present invention (Compound 21, Compound 23, and Compound 25) at concentrations of 0, 5, 10, and 20 µM, respectively, for 30 minutes, followed by treatment with TNFα in a concentration of 10 ng/mL for 12 hours, after which the cells were harvested. Total RNA was extracted using TRIzol RNA isolation reagents (TRIzol Life Technologies Korea). A total of 0.5 µg of total RNA was reverse transcribed to synthesize complementary DNA (cDNA) according to the method recommended by the manufacturer using an iScript cDNA synthesis kit (Bio-Rad, Hercules, Calif., U.S.A.). PCR was performed using 0.0125 µg of double-stranded cDNA.
(§4) Glyceraldehyde-3-phosphate dehydrogenase (GAPDH), a housekeeping gene, was used as the control group. The double-stranded cDNA was denatured at 95 °C for 5 minutes and then subjected to cycles of reaction at 94 °C for 1 minute, 65 °C for 2 minutes, and 70 °C for 1 minute, repeated 30 times. The final product of PCR was electrophoresed on 1% agarose gel, stained with ethidium bromide (EtBr), and confirmed.

IL-6 = assay: RT-PCR of EGR-1 target gene mRNA in TNFα-stimulated HaCaT cells: IL-6; format: cell-based, human; settings: 0, 5, 10, and 20 µM for 30 minutes, then TNFα 10 ng/mL for 12 hours, FIG. 14
Protocol: as §1, §2, §3, §4

EGR-1 [1] = target: T1, EGR-1 (Homo sapiens, UniProt P18146); assay: EGR-1 DNA binding activity assay (EDBA); set-up: made in house; settings: EGR-1 DNA binding inhibitory activity; EGR-1 overexpressing cell lysate; absorbance at 450 nm; compound concentration not given
T1 sequence (P18146 whole entry): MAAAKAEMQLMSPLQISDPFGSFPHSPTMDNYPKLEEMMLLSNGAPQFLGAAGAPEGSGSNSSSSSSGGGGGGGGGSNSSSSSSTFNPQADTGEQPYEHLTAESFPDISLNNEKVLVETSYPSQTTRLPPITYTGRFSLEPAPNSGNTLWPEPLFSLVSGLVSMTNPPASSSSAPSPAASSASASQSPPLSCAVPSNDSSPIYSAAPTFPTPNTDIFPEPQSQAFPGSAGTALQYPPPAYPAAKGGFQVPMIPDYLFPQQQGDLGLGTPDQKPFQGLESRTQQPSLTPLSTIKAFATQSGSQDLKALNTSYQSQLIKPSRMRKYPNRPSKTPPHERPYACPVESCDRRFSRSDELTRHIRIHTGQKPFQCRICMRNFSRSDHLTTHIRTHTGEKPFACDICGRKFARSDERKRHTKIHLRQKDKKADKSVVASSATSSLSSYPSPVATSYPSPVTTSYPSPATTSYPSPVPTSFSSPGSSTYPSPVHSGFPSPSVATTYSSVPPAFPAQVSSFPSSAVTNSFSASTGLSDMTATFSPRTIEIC
Protocol: In this experiment, the inhibitory effect of the compounds of the present invention on EGR-1 binding activity was evaluated using an EGR-1 DNA binding activity assay (EDBA).
Single-stranded sense and antisense oligonucleotides of the following EGR-1 binding sequence (EBS) were prepared by outsourcing to Bioneer Co., Ltd. (Daejeon, Korea). In this case, the 5'-end of the sense oligonucleotide was labeled with biotin. The sense and antisense oligonucleotides were heated at 95 °C for 5 minutes and then left overnight at room temperature to hybridize the sense and antisense oligonucleotides. Hereinafter, the hybridized sense and antisense oligonucleotides are referred to as biotin-EBS. • Sense sequence: biotin-5'-[…]-3' • Antisense sequence: 5'-[…]-3'
Avidin protein was coated on a 96-well plate (purchased from Thermo Fisher Scientific), and biotin-EBS was added to the plate at a concentration of 0.5 pmol/50 µL/well, followed by reaction at 37 °C for 1 hour to allow biotin-EBS oligonucleotide to be attached to the plate. After washing three times with phosphate buffer saline containing 0.05% Tween 20 (PBS/Tween 20) to remove unattached biotin-EBS oligonucleotides, 200 µL of PBS/Tween 20 solution containing 2% bovine serum albumin (BSA) was added to each well, followed by reaction at 37 °C for 1 hour to block the surface of the plate where no oligonucleotide was attached.
The solution containing the sample compound and the EGR-1 protein was added to the biotin-EBS oligonucleotide coated plate prepared in step (2).
The compound sample (1 µL) was reacted with the EGR-1 overexpressing cell lysate containing 10 mM Tris, pH 7.5, 50 mM KCl, 2% BSA and 8% glycerol at room temperature for 30 minutes, and then added to a reaction well coated with biotin-EBS and further reacted at room temperature for one hour. After washing three times with PBS/Tween 20 solution, an EGR-1 antibody was added to the PBS solution supplemented with 2% BSA and 5 mM NaCl in an amount of 50 µL per each well. The mixture was incubated at room temperature for one hour, washed three times with PBS/Tween 20 solution, and then treated with horseradish peroxidase-conjugated secondary antibody (Goat anti-rabbit IgG antibody, Cell Signaling Technology company, Danvers, Mass., USA) diluted by 1:1000 at room temperature for one hour. After washing five times with PBS/Tween 20 solution, a substrate tetramethylbenzidine solution was added to each well in an amount of 50 µL. After reacting for 5 minutes, the reaction was stopped by adding 100 µL of 2 N sulfuric acid solution. The DNA binding inhibitory activity of EGR-1 was measured by absorbance at 450 nm according to Equation 1 below. EGR-1 DNA binding inhibitory activity (%) = 100−{(As/Ap)×100} [formula]
As: absorbance of a sample prepared by reacting an EGR-1-overexpressing cell lysate with the compound.
Ap: absorbance of the sample treated only with EGR-1-overexpressing cell lysate.

EGR-1 [2] = target: T1, EGR-1; assay: Electrophoretic mobility shift assay (EMSA) of EGR-1 DNA binding; set-up: made in house; host or cells: Sf21 insect cells (crude cell extract); settings: EGR-1 overexpressing Sf21 cell extract, biotin-labeled probe; FIG. 13
Protocol: When a nucleic acid and a protein are bound to each other, the complex of the nucleic acid and the protein moves more slowly than the nucleic acid alone, so that in an EMSA, a band of the nucleic acid bound to the protein appears higher than a band of only the nucleic acid.
In detail, the protein-DNA binding was analyzed by purchasing a LightShift Chemiluminescence EMSA kit (ThermoFisher Scientific, Waltham, MA, USA). The probe sequence for EGR-1 was synthesized by Macrogen company (Seoul, Korea) by ordering a deoxynucleotide labeled with biotin at the EGR-1 binding sequence (5'-biotin-AGAGTGTGTCTCCTTCGCACACATC-3'). The EGR-1 protein used in the experiment was an Sf21 insect cell extract overexpressing human EGR-1 protein as described in Yeo et al. [Journal of Investigative Dermatology 2021; 141:1851-1855]. Wild-type Sf21 cell extract was used as a negative control. After reacting 3 µg of EGR-1 overexpressing Sf21 cell extract, 1 µl of the compound of the present invention at a concentration of 20 mM, 50 fmol of the biotin-labeled EGR-1 binding deoxyoligonucleotide probe, and 1 µg poly(dI-dC) (Amersham Pharmacia Biotech Inc) for 20 minutes, electrophoresis was performed on a 6% non-denaturing polyacrylamide gel. The electrophoresed sample was transferred to a nylon membrane (Immobilon-Ny+ Transfer membrane, Millipore) and soaked in 5% skim milk solution for 30 minutes. Then, horseradish peroxidase-conjugated streptavidin was added and reacted for 15 minutes, and after washing unbound proteins from the membrane, the EGR-1-DNA complex was detected on X-ray film using an enhanced chemiluminescence (ECL) detection system (ThermoFisher Scientific). The intensity of the EGR-1-DNA complex band was analyzed using the ImageJ program (National Institute of Health, USA), and the intensity of the sample without the compound was set to 100%, and relative intensities were measured.

IL-1β = assay: RT-PCR of EGR-1 target gene mRNA in TNFα-stimulated HaCaT cells: IL-1β; format: cell-based, human; settings: 0, 5, 10, and 20 µM for 30 minutes, then TNFα 10 ng/mL for 12 hours, FIG. 14
Protocol: as §1, §2, §3, §4

[3] = tested on: animal model of atopic dermatitis; assay: DNCB-induced animal model of atopic dermatitis, topical application; format: in vivo, BALB/c mice; settings: 0.1% applied to ear; for epidermal thickness / dermal thickness: day 22, H&E staining; for epidermal thickness: normal 24.47±2.353, DNCB only 37.27±4.393; for dermal thickness: normal 143.2±19.61, DNCB only 197.5±17.83; for macroscopic skin condition: day 22, FIG. 15B; for expression of filaggrin / expression of TSLP: immunofluorescence of skin tissue; for expression of filaggrin: FIG. 17B; for expression of TSLP: compared to positive control group, FIG. 17A; for expression of MPO (neutrophil marker) / expression of F4/80 (macrophage marker): immunohistochemistry; for expression of MPO (neutrophil marker): FIG. 16C; for expression of F4/80 (macrophage marker): FIG. 16D; for mast cell infiltration / number of mast cells infiltrated: toluidine blue staining; for mast cell infiltration: compared to the positive control group, FIG. 16A; for number of mast cells infiltrated: normal 11±3, DNCB 38±6

SMILES	expression level of TSLP mRNA (TSLP)	expression level of IL-6 mRNA (IL-6)	Inhibition Rate (%) (EGR-1 [1])	DNA binding of EGR-1 (EGR-1-DNA complex band) (EGR-1 [2])	expression level of IL-1β mRNA (IL-1β)	epidermal thickness [3]	dermal thickness [3]	macroscopic skin condition [3]	expression of filaggrin [3]	expression of TSLP [3]	expression of MPO (neutrophil marker) [3]	expression of F4/80 (macrophage marker) [3]	mast cell infiltration [3]	number of mast cells infiltrated [3]
O=C1Nc2c(F)cccc2/C1=N/NC(=S)Nc1ccc(C(F)(F)F)cc1 [Compound 21, (Z)-2-(7-fluoro-2-oxoindolin-3-ylidene)-N-(4-(trifluoromethyl)phenyl)hydrazinethioamide]	decreased dose-dependently	decreased dose-dependently	70.20%	inhibited DNA binding of EGR-1 in a concentration-dependent manner	decreased dose-dependently	25.22±2.993 µm	163.4±7.905 µm	significant improvement in skin condition	recovered to a level similar to normal tissue	significantly decreased	decreased similar to normal tissue	decreased similar to normal tissue	significantly reduced	18±2 per 2.5 cm^2
COc1ccc2c(c1)NC(=O)/C2=N\NC(=S)Nc1cccc([N+](=O)[O-])c1 [Compound 23, (Z)-2-(6-methoxy-2-oxoindolin-3-ylidene)-N-(3-nitrophenyl)hydrazin-1-carbothioamide]	decreased dose-dependently	decreased dose-dependently	67.63%	inhibited DNA binding of EGR-1 in a concentration-dependent manner	decreased dose-dependently	22.92±3.617 µm	147.5±8.302 µm	significant improvement in skin condition	recovered to a level similar to normal tissue	significantly decreased	decreased similar to normal tissue	decreased similar to normal tissue	significantly reduced	19±5 per 2.5 cm^2
COc1ccc2c(c1)NC(=O)/C2=N\NC(=S)Nc1ccc(C#N)cc1 [Compound 25, (Z)-N-(4-cyanophenyl)-2-(6-methoxy-2-oxoindolin-3-ylidene)hydrazinethioamide]	decreased dose-dependently	decreased dose-dependently	76.13%	inhibited DNA binding of EGR-1 in a concentration-dependent manner	decreased dose-dependently	23.46±1.530 µm	157.8±17.05 µm	significant improvement in skin condition	recovered to a level similar to normal tissue	significantly decreased	decreased similar to normal tissue	decreased similar to normal tissue	significantly reduced	15±5 per 2.5 cm^2
O=C1Nc2ccc(OC(F)(F)F)cc2/C1=N/NC(=S)Nc1ccc(Br)cc1 [Compound 79, (Z)-N-(4-bromophenyl)-2-(2-oxo-5-(trifluoromethoxy)indolin-3-ylidene)hydrazinethioamide]	–	–	42.27%	–	–	–	–	–	–	–	–	–	–	–
C[C@@H]1CCN(C(=O)CC#N)C[C@@H]1N(C)c1ncnc2[nH]ccc12 [tofacitinib, Tofacitinib, reference compound]	–	–	–	–	–	27.09±1.719 µm	154.5±11.32 µm	–	recovered to a level similar to normal tissue	significantly decreased	decreased similar to normal tissue	decreased similar to normal tissue	significantly reduced	14±5 per 2.5 cm^2
